Measurements reported in patent US20190316085A1, “Methods Of T-Lymphocyte Expansion” (Cambridge Enterprise Limited, priority 2015, published 2019).

Legend:
CD8^+ T-lymphocytes [1] = assay: Glucose, lactate and VEGF measurements in media; format: cell-based, mouse; details: 0.5 mM, 16 hours
Description: Each dot represent one donor mouse n≥16 mice. P-values are shown for each panel; one-way ANOVA for multiple comparisons (A, B and C). n.s.=non significant.
(§1) CD8^+ T-cells were expanded for 4 days and then treated for 16 h with S-2HG octyl ester or R-2HG octyl ester. Glucose and lactate levels in culture medium were measured with a Dade-Behring Dimension RXL analyser. Changes in metabolite concentrations relative to fresh media were normalized to viable cell counts. VEGF, IL-2 and IFN-γ protein levels in media were determined using the following kits from MesoScale Discovery: K150BMC-2 for VEGF, K15048D-2 for IFN-γ and K152QQD-2 for IL-2. Values were normalized to viable cell counts.

CD8^+ T-lymphocytes [2] = assay: Flow cytometry of CD44 and CD62L surface expression; format: cell-based, mouse; details: for CD62L effect when treating CD62L^low CD44^high effector cells: 0.5 mM added after 7 days of vehicle; for reversibility of the CD62L effect upon withdrawal of treatment: 0.5 mM for 7 days then washout, followed 9 more days; for formation of a CD62L^high CD44^high population / effect on CD62L when HIF-1α is absent / CD62L downregulation in HIF-2a null cells: 0.5 mM; for formation of a CD62L^high CD44^high population: with IL-2, antigen specific (OT-I) and polyclonal CD8+ T-lymphocytes; for effect on CD62L when HIF-1α is absent: Hif1α^−/− CD8+ T-lymphocytes; for CD62L downregulation in HIF-2a null cells: Hif2α^−/− CD8+ T-lymphocytes, versus wild type controls
Source text: Data are representative of n=4 individual mice.
Data are representative of 3 mice per genotype.
Data are representative of 2 mice per genotype.
Data are representative of n=3 individual mice.
Cells were stained and acquired on a Fortessa (BD Biosciences). […] For staining of nuclear-located marker Eomes, the Transcription Factor Staining Buffer Set (eBioscience) was used, according to the manufacturer's instructions. For staining of intracellular cytokines, OT-I cells were re-stimulated with […] peptide for 4 h with GolgiStop solution (BD). For ^1H-NMR experiments, CD8^+ T-lymphocytes were sorted from total splenocytes by immunostaining with anti-mouse CD8-AF647 (Biolegend) on a MoFlo (Beckman Coulter). Cells were then activated and cultured as described above.

CD8^+ T-lymphocytes [3] = assay: IFN-γ and IL-2 protein in media; format: cell-based, mouse; details: 0.5 mM, 24 h
Description: Total splenocytes were activated for 48 h with 1000 nM SIINFEKL and then expanded for a further 4 days in the presence of IL-2 followed by treatment 0.5 mM of S-2HG-octyl R-2HG-octyl ester ester for 24 h. OT-I CD8^+ T-lymphocytes were incubated with target and control cells for 4 hours. n=3 mice per condition. […] Cells were activated for 48 h with αCD3+αCD28 antibodies and then expanded for a further 4 days in the presence of IL-2 followed by treatment with the indicated concentration of S-2HG-octyl ester or R-2HG-octyl ester for 24 hours. n≥16 mice.
as §1

OT-I CD8^+ T-lymphocytes = assay: Survival in the absence of IL-2 supplementation; format: cell-based, mouse; details: 0.5 mM
Description: OT-I CD8^+ T-lymphocytes were incubated with target and control cells for 4 hours. n=3 mice per condition. […]
Cells were counted on an ADAM-MC automated cell counter (NanoEnTek) and viability was assessed by the exclusion of propidium iodide. Cell volume was determined using a Z2 Coulter counter (Beckman Coulter).

human CD8^+ T cells = assay: Experiments with human CD8+ T cells (CCR7, CD45RO flow cytometry); format: cell-based; details: 14 days; 600 μM S-2HG-octyl ester or 800 μM R-2HG-octyl ester versus vehicle
Description: Numbers in dot plots represent the percentage of cells present in the corresponding quadrant defined by CCR7 and CD45RO expression.
Human CD8^+ T cells were magnetically isolated from blood of healthy donors after gradient centrifugation. Incubation with microbeads conjugated to anti-human CD8 antibodies (Miltenyi 130-097-057) was followed by magnetic bead isolation on a MACS column. Purified human CD8^+ T cells were activated with αCD3 and αCD28 coated beads (Dynabeads, 111.61D) and expanded in the presence of recombinant human IL-2 (30 Ul/mL, Roche 11011456001).
Cells were stained and acquired on a Fortessa (BD Biosciences). The following fluorophores and fluorophore-conjugated antibodies were used: anti-CD62L (Biolegend, MEL-14), anti-CD44 (Biolegend, IM7), anti-CD8a (Biolegend, 53-6.7), anti-CD45.1 (Biolegend, A20), anti-CD45.2 (Biolegend, 104), anti-CD127 (Biolegend, A7R34), anti-KLRG1 (Biolegend, 2F1/KLRG1), anti-CD19 (Biolegend, 6D5), anti-Bcl-2 (Biolegend, BCL/10C4), Eomes (eBioscience, Danlimag), PD-1 (Biolegend, 29F.1A12), […], H-2Kb/SIINFEKL Pentamer-PE (Proimmune, F093-2A), CFSE (Life Technologies), LIVE/DEAD Violet (Life Technologies), PI-AnnexinV (Biolegend, 640928), anti-Bcl-xl-PE (Cell Signalling Technologies, 54H6). For staining of nuclear-located marker Eomes, the Transcription Factor Staining Buffer Set (eBioscience) was used, according to the manufacturer's instructions. For staining of intracellular cytokines, OT-I cells were re-stimulated with SIINFEKL peptide for 4 h with GolgiStop solution (BD). For ^1H-NMR experiments, CD8^+ T-lymphocytes were sorted from total splenocytes by immunostaining with anti-mouse CD8-AF647 (Biolegend) on a MoFlo (Beckman Coulter). Cells were then activated and cultured as described above. For staining of human T cells, CD8^+ T cells were incubated at 37 C for 30 minutes in the presence of anti-CCR7 antibody (eBioscience 12-1979-41), followed by staining with anti-CD45RO antibody (Biolegend, UCHL1).
For experiments with human CD8^+ T cells, cells were magnetically isolated, activated and plated at a concentration of 1×10^6 cells per mL in the presence of 30 UI/mL of recombinant human IL-2. […] On day 14, the surface expression of CCR7 and CD45RO on alive CD8^+ cells was measured by flow cytometry.

CD8^+ T-lymphocytes [4] = assay: qRT-PCR of differentiation, memory and pluripotency associated genes; format: cell-based, mouse; details: 0.5 mM; for transcript levels of Eomes, acute treatment: 24 h; for expression of pluripotency associated genes (Oct3/4, Sox2, Nanog, Klf4): with IL2; for Il2 and Ifng mRNA expression: 24 h or 7 days; for Eomes expression levels after continuous treatment: 7 days
Description: FIGS. 8E, 8F and 8G show expression of II2(8E), Ifng (8F), and Eomes (8G) mRNA in CD8^+ T-lymphocytes activated for 48 h with αCD3+αCD28 antibodies and then expanded for a further 2 days in the presence of IL-2. Cells were then treated for either 24 h or 7 days with or without 0.5 mM S-2HG-octyl ester or R-2HG-octyl ester. n≥4 mice per group.
Activated CD8^+ T-lymphocytes were treated with 0.5 mM of either S-2HG-octyl ester or R-2HG-octyl ester for 1 day or 7 days in the presence of IL2. The induction seen with R-2HG-octyl ester is weaker than with S-2HG-octyl ester. Each dot represents an individual donor mouse, n=4 mice. error bars denote the s.d.
RNA was isolated using the RNeasy kit (Qiagen). 1 μg of RNA was used for cDNA synthesis with the First-Strand Synthesis kit (Invitrogen). All samples were run in technical triplicates using a StepOnePlus system (Applied Biosystems) with SYBR green.

SMILES: CCCCCCCCOC(=O)[C@H](O)CCC(=O)O [R-2HG-octyl ester]
- VEGF production (CD8^+ T-lymphocytes [1]): elevated
- glucose uptake (CD8^+ T-lymphocytes [1]): elevated
- lactate secretion (CD8^+ T-lymphocytes [1]): elevated
- CD62L effect when treating CD62L^low CD44^high effector cells (CD8^+ T-lymphocytes [2]): does not occur
- reversibility of the CD62L effect upon withdrawal of treatment (CD8^+ T-lymphocytes [2]): reversible
- formation of a CD62L^high CD44^high population (CD8^+ T-lymphocytes [2]): promotes the formation
- effect on CD62L when HIF-1α is absent (CD8^+ T-lymphocytes [2]): masks the effects
- CD62L downregulation in HIF-2a null cells (CD8^+ T-lymphocytes [2]): inhibits CD62L downregulation
- production of interleukin-2 (IL-2) (CD8^+ T-lymphocytes [3]): increased
- secretion of interferon-γ (IFN-γ) (CD8^+ T-lymphocytes [3]): decreased
- ability to survive in the absence of IL-2 supplementation (OT-I CD8^+ T-lymphocytes): elevated ability to survive
- expression of CCR7 (human CD8^+ T cells): induced the expression
- expression of CD45RO (human CD8^+ T cells): induced the expression
- expression of memory associated transcripts (including Ccr7) (CD8^+ T-lymphocytes [4]): increased
- transcript levels of Eomes, acute treatment (CD8^+ T-lymphocytes [4]): represses
- induction of pluripotency associated genes compared with S-2HG-octyl ester (CD8^+ T-lymphocytes [4]; 1 day or 7 days): weaker
- expression of pluripotency associated genes (Oct3/4, Sox2, Nanog, Klf4) (CD8^+ T-lymphocytes [4]; 1 day or 7 days): induces the expression
- Il2 and Ifng mRNA expression (CD8^+ T-lymphocytes [4]): mediated at the transcriptional level
- Eomes expression levels after continuous treatment (CD8^+ T-lymphocytes [4]): higher expression levels

SMILES: CCCCCCCCOC(=O)[C@@H](O)CCC(=O)O [S-2HG-octyl ester, S-2HG octyl ester]
- VEGF production (CD8^+ T-lymphocytes [1]): elevated
- glucose uptake (CD8^+ T-lymphocytes [1]): elevated
- lactate secretion (CD8^+ T-lymphocytes [1]): elevated
- CD62L effect when treating CD62L^low CD44^high effector cells (CD8^+ T-lymphocytes [2]): does not occur
- reversibility of the CD62L effect upon withdrawal of treatment (CD8^+ T-lymphocytes [2]): reversible
- formation of a CD62L^high CD44^high population (CD8^+ T-lymphocytes [2]): promotes the formation
- effect on CD62L when HIF-1α is absent (CD8^+ T-lymphocytes [2]): masks the effects
- CD62L downregulation in HIF-2a null cells (CD8^+ T-lymphocytes [2]): inhibits CD62L downregulation
- production of interleukin-2 (IL-2) (CD8^+ T-lymphocytes [3]): increased
- secretion of interferon-γ (IFN-γ) (CD8^+ T-lymphocytes [3]): decreased
- ability to survive in the absence of IL-2 supplementation (OT-I CD8^+ T-lymphocytes): elevated ability to survive
- expression of CCR7 (human CD8^+ T cells): induced the expression
- expression of CD45RO (human CD8^+ T cells): induced the expression
- expression of memory associated transcripts (including Ccr7) (CD8^+ T-lymphocytes [4]): increased
- transcript levels of Eomes, acute treatment (CD8^+ T-lymphocytes [4]): represses
- expression of pluripotency associated genes (Oct3/4, Sox2, Nanog, Klf4) (CD8^+ T-lymphocytes [4]; 1 day or 7 days): induces the expression
- Il2 and Ifng mRNA expression (CD8^+ T-lymphocytes [4]): mediated at the transcriptional level
- Eomes expression levels after continuous treatment (CD8^+ T-lymphocytes [4]): higher expression levels
